Test results: patent US20230310388A1, “Methods and Compositions for Treating Fungal Infections” (Neoculi Pty Ltd, priority 2020, published 2023)
Where “and” joins values, the source holds several entries; their conditions need not be identical. Equal values may be shown once. Values belong to the compound of their own block, whether it stands above or below them.

Experiments:
[1] = system: Cryptococcus neoformans; test: CLSI broth microdilution MIC (Example 4); assay type: cell-based
Method: (§1) Antifungal minimum inhibitory concentration (MIC) testing was undertaken as recommended by the CLSI. Briefly, antifungal susceptibility tests were performed for amphotericin B, robenidine (NCL812) and robenidine (NCL) analogs (NCL004, NCL020, NCL023, NCL024, NCL062, NCL094, NCL097, NCL110, NCL113, NCL114, NCL115, NCL135, NCL139, NCL180, NCL181, NCL195, NCL219, NCL220, NCL228, NCL247, NCL250, NCL259, NCL260, NCL263, NCL265, NCL269, NCL274) by standard broth microdilution method (CLSI) in RPMI 1640. Various concentrations (ranging from high to low) of the selected compounds were prepared in RPMI 1640 medium by double dilution in 96-well microtitre plates. Each well contained an inoculum of approximately 2×10^3 cells/mL. The wells without addition of drugs served as negative (no inoculum) and positive (inoculum only) growth controls. Microtitre plates were incubated at 35° C. for 24-48 hours. […] Antifungal MICs were determined for each isolate in duplicate; if the values obtained were different, the MIC test was repeated a third time.

[2] = system: Candida albicans; test: CLSI broth microdilution MIC (Example 4); assay type: cell-based
Method: as §1

[3] = system: Candida albicans ATCC14053; test: Broth micro-dilution screen at 16 μg/mL and MIC (Example 9); assay type: cell-based; settings: for Screen at 16 μg/mL: single concentration 16 μg/mL, Growth or No growth of C. albicans ATCC14053; for MIC: C. albicans ATCC14053, test range 0.25-64 μg/mL, duplicate
Method: The antifungal activity of 201 NCL analogs against Candida albicans ATCC14053 in vitro was investigated. A broth micro-dilution method was used, according to CLSI guidelines as described. NCL analogs were dissolved in DMSO and originally screened at a single concentration of 16 μg/mL.

[4] = system: Cryptococcus neoformans; test: CLSI broth microdilution MIC (Example 5); assay type: cell-based
Method: as §1, with “robenidine” for “robenidine (NCL)”, “(NCL23, NCL24, NCL97,” for “(NCL004, NCL020, NCL023, NCL024, NCL062, NCL094, NCL097, NCL110,”, “NCL113,” for “NCL113, NCL114,”, “NCL115,” for “NCL115, NCL135, NCL139, NCL180, NCL181,”, “NCL220,” for “NCL220, NCL228, NCL247, NCL250,”, “NCL265)” for “NCL260, NCL263, NCL265, NCL269, NCL274)”

[5] = system: Candida albicans; test: CLSI broth microdilution MIC (Example 5); assay type: cell-based; settings: for activity against one or more isolates of Cryptococcus neoformans and Candida albicans: summary in words
Method: as §1, with “robenidine” for “robenidine (NCL)”, “(NCL23, NCL24, NCL97,” for “(NCL004, NCL020, NCL023, NCL024, NCL062, NCL094, NCL097, NCL110,”, “NCL113,” for “NCL113, NCL114,”, “NCL115,” for “NCL115, NCL135, NCL139, NCL180, NCL181,”, “NCL220,” for “NCL220, NCL228, NCL247, NCL250,”, “NCL265)” for “NCL260, NCL263, NCL265, NCL269, NCL274)”

[6] = system: Cryptococcus neoformans; test: CLSI broth microdilution MIC (Example 6); assay type: cell-based
Method: (§2) Antifungal minimum inhibitory concentration (MIC) testing was undertaken as recommended by the CLSI (1). Briefly, antifungal susceptibility tests were performed for amphotericin B, robenidine (NCL812) and 10 robenidine analogs (NCL023, NCL024, NCL097, NCL113, NCL115, NCL195, NCL219, NCL220, NCL259, NCL265) by standard broth microdilution method (CLSI) in RPMI 1640. Various concentrations (ranging from high to low) of the selected compounds were prepared in RPMI 1640 medium by double dilution in 96-well microtitre plates. Each well contained an inoculum of approximately 2×10^3 cells/mL. The wells without addition of drugs served as negative (no inoculum) and positive (inoculum only) growth controls. Microtitre plates were incubated at 35° C. for 24-48 hours. […] Antifungal MICs were determined for each isolate in duplicate; if the values obtained were different, the MIC test was repeated a third time.

[7] = system: Candida albicans; test: CLSI broth microdilution MIC (Example 6); assay type: cell-based
Method: as §2

[8] = system: C. gattii; test: CLSI broth microdilution MIC (Example 6); assay type: cell-based, Cryptococcus gattii
Method: as §2

[9] = clinical isolate C. albicans 12-93301752 Azole Resistant
[10] = clinical isolate C. albicans 14-90045999 Azole Resistant
[11] = clinical isolate C. albicans 15-45171061
[12] = clinical isolate C. albicans 15-91329871
[13] = clinical isolate C. albicans 16-24136919 Azole Resistant
[14] = clinical isolate C. albicans 16-46177400
[15] = clinical isolate C. albicans 16-90050810
[16] = clinical isolate C. albicans 16-90054237
[17] = clinical isolate C. albicans 18-144-00196
[18] = clinical isolate C. albicans 18-148-08188 Azole Resistant
[19] = human clinical isolate C. neoformans serotype A/D hybrid
[20] = human clinical isolate C. neoformans var grubii 16-90050434
[21] = human clinical isolate C. neoformans var grubii 17-90028233
[22] = human clinical isolate C. neoformans var grubii 17-93996464
[23] = human clinical isolate C. neoformans var grubii 17-93996964
[24] = human clinical isolate C. gatti 17-90232099
[25] = human clinical isolate C. gattii 16-90050373
[26] = human clinical isolate C. gattii 17-90028211
[27] = human clinical isolate C. gattii 17-90028217
[28] = human clinical isolate C. gattii 17-90028242

- MIC at 24-48 hours ([1]; Cryptococcus neoformans SA1): >32 µg/mL
- MIC at 24-48 hours ([1]; Cryptococcus neoformans SA2): >32 µg/mL
- MIC at 24-48 hours ([2]; Candida albicans ATCC 90028): >32 µg/mL
- MIC at 24-48 hours ([2]; Candida albicans SA3): >32 µg/mL
SMILES: Cl.N=C(NN=Cc1ccccc1Cl)NN=Cc1ccccc1Cl [NCL020]
- Screen at 16 μg/mL [3]: Growth

- MIC at 24-48 hours ([1]; Cryptococcus neoformans SA1): 16 µg/mL
- MIC at 24-48 hours ([1]; Cryptococcus neoformans SA2): 16 µg/mL
- MIC at 24-48 hours ([2]; Candida albicans ATCC 90028): 32 µg/mL
- MIC at 24-48 hours ([2]; Candida albicans SA3): 32 µg/mL
- MIC ([4]; Cryptococcus neoformans SA1): 16 µg/mL
- MIC ([4]; Cryptococcus neoformans SA2): 16 µg/mL
- MIC ([5]; C. albicans SA3): 32 µg/mL
- MIC ([5]; Candida albicans ATCC 90028): 32 µg/mL
- MIC [5, 9]: 16 µg/mL
- MIC [5, 10]: >16 µg/mL
- MIC [5, 11]: 16 µg/mL
- MIC [5, 12]: 16 µg/mL
- MIC [5, 13]: 8 µg/mL
- MIC [5, 14]: >16 µg/mL
- MIC [5, 15]: >16 µg/mL
- MIC [5, 16]: 16 µg/mL
- MIC [5, 17]: 16 µg/mL
- MIC [5, 18]: 16 µg/mL
- MIC ([6]; Cryptococcus neoformans SA1): 16 µg/mL
- MIC ([6]; Cryptococcus neoformans SA2): 16 µg/mL
- MIC [6, 19]: 8 µg/mL
- MIC [6, 20]: 8 µg/mL
- MIC [6, 21]: 8 µg/mL
- MIC [6, 22]: 8 µg/mL
- MIC [6, 23]: 8 µg/mL
- MIC ([7]; C. albicans SA3): 32 µg/mL
- MIC ([7]; Candida albicans ATCC 90028): 32 µg/mL
- MIC [3]: 8 µg/mL and 16 µg/mL
- MIC [8, 24]: 8 µg/mL
- MIC [8, 25]: 8 µg/mL
- MIC [8, 26]: 16 µg/mL
- MIC [8, 27]: 16 µg/mL
- MIC [8, 28]: 8 µg/mL
SMILES: Cl.N=C(NN=Cc1cccc(F)c1)NN=Cc1cccc(F)c1 [NCL023]
- antifungal activity against the two isolates of Candida albicans ([2]; summary in words): high antifungal activity
- activity against one or more isolates of Cryptococcus neoformans and Candida albicans [5]: highly active
- Screen at 16 μg/mL [3]: No growth

- MIC at 24-48 hours ([1]; Cryptococcus neoformans SA1): >32 µg/mL
- MIC at 24-48 hours ([1]; Cryptococcus neoformans SA2): 32 µg/mL
- MIC at 24-48 hours ([2]; Candida albicans ATCC 90028): >32 µg/mL
- MIC at 24-48 hours ([2]; Candida albicans SA3): >32 µg/mL
- MIC ([4]; Cryptococcus neoformans SA1): >32 µg/mL
- MIC ([4]; Cryptococcus neoformans SA2): 32 µg/mL
- MIC ([5]; C. albicans SA3): >32 µg/mL
- MIC ([5]; Candida albicans ATCC 90028): >32 µg/mL
- MIC [5, 9]: 8 µg/mL
- MIC [5, 10]: 4 µg/mL
- MIC [5, 11]: 16 µg/mL
- MIC [5, 12]: >16 µg/mL
- MIC [5, 13]: 8 µg/mL
- MIC [5, 14]: >16 µg/mL
- MIC [5, 15]: >16 µg/mL
- MIC [5, 16]: 4 µg/mL
- MIC [5, 17]: 16 µg/mL
- MIC [5, 18]: >16 µg/mL
- MIC ([6]; Cryptococcus neoformans SA1): >32 µg/mL
- MIC ([6]; Cryptococcus neoformans SA2): 32 µg/mL
- MIC [6, 19]: 32 µg/mL
- MIC [6, 20]: 32 µg/mL
- MIC [6, 21]: 16 µg/mL
- MIC [6, 22]: 32 µg/mL
- MIC [6, 23]: 32 µg/mL
- MIC ([7]; C. albicans SA3): >32 µg/mL
- MIC ([7]; Candida albicans ATCC 90028): >32 µg/mL
- MIC [8, 24]: 32 µg/mL
- MIC [8, 25]: 16 µg/mL
- MIC [8, 26]: 8 µg/mL
- MIC [8, 27]: 32 µg/mL
- MIC [8, 28]: 32 µg/mL
SMILES: Cl.N#Cc1ccc(C=NNC(=N)NN=Cc2ccc(C#N)cc2)cc1 [NCL024]
- activity against one or more isolates of Cryptococcus neoformans and Candida albicans [5]: highly active
- Screen at 16 μg/mL [3]: Growth

- MIC at 24-48 hours ([1]; Cryptococcus neoformans SA1): >32 µg/mL
- MIC at 24-48 hours ([1]; Cryptococcus neoformans SA2): >32 µg/mL
- MIC at 24-48 hours ([2]; Candida albicans ATCC 90028): >32 µg/mL
- MIC at 24-48 hours ([2]; Candida albicans SA3): >32 µg/mL
SMILES: Cl.N=C(NN=CC1CCCCC1)NN=CC1CCCCC1 [NCL094]
- Screen at 16 μg/mL [3]: Growth

- MIC at 24-48 hours ([1]; Cryptococcus neoformans SA1): >32 µg/mL
- MIC at 24-48 hours ([1]; Cryptococcus neoformans SA2): >32 µg/mL
- MIC at 24-48 hours ([2]; Candida albicans ATCC 90028): >32 µg/mL
- MIC at 24-48 hours ([2]; Candida albicans SA3): >32 µg/mL
SMILES: Cl.N=C(NN=Cc1ccc([N+](=O)[O-])cc1)NN=Cc1ccc([N+](=O)[O-])cc1 [NCL110]
- Screen at 16 μg/mL [3]: Growth

- MIC at 24-48 hours ([1]; Cryptococcus neoformans SA1): >32 µg/mL
- MIC at 24-48 hours ([1]; Cryptococcus neoformans SA2): >32 µg/mL
- MIC at 24-48 hours ([2]; Candida albicans ATCC 90028): >32 µg/mL
- MIC at 24-48 hours ([2]; Candida albicans SA3): >32 µg/mL
SMILES: Cl.N=C(NN=Cc1cc(Cl)cc(Cl)c1)NN=Cc1cc(Cl)cc(Cl)c1 [NCL114]
- Screen at 16 μg/mL [3]: Growth

- MIC at 24-48 hours ([1]; Cryptococcus neoformans SA1): >32 µg/mL
- MIC at 24-48 hours ([1]; Cryptococcus neoformans SA2): >32 µg/mL
- MIC at 24-48 hours ([2]; Candida albicans ATCC 90028): >32 µg/mL
- MIC at 24-48 hours ([2]; Candida albicans SA3): >32 µg/mL
SMILES: COc1cc(Br)c(C=NNC(=N)NN=Cc2cc(OC)c(OC)cc2Br)cc1OC.Cl [NCL135]
- Screen at 16 μg/mL [3]: Growth

- MIC at 24-48 hours ([1]; Cryptococcus neoformans SA1): >32 µg/mL
- MIC at 24-48 hours ([1]; Cryptococcus neoformans SA2): >32 µg/mL
- MIC at 24-48 hours ([2]; Candida albicans ATCC 90028): >32 µg/mL
- MIC at 24-48 hours ([2]; Candida albicans SA3): >32 µg/mL
- MIC [3]: <0.5 µg/mL
SMILES: Cl.N=C(NN=Cc1cnc2ccccc2c1)NN=Cc1cnc2ccccc2c1 [NCL139]
- Screen at 16 μg/mL [3]: No growth
